Measurements from patent publication US7598244B2, “[1,2,4]triazolo[1,5,a]pyrimidin-2-ylurea derivative and use thereof” (Nippon Kayaku Kabushiki Kaisha, priority 2003, dated 2009).

Tested on: MHC class I molecules of T1 cells (human lymphoma cell line 174×CEM.)
Assay: Effect on expression of MHC class I from T1 cells (flow cytometry, MFI)
Assay type: cell-based
Settings: 3 days culture
Procedure: Effect on Expression of MHC Class I from T1 Cells (Human Lymphoma Cell Line 174×CEM.)
Using a 96-well flat bottom microplate, T1 cells (5.7×10^3 cells/200 μl/well) were cultured in an RPMI 1640 medium (Iwaki Glass) containing 10% fetal bovine serum (hereinafter abbreviated as FBS; Iruvine Scientific) in an incubator containing 5% carbon dioxide at 37° C. for 3 days, in the presence of a test compound having each concentration obtained by dilution at a common ratio route of 10 from 400 μM. After completion of the culture, the cells were stained with fluoroisothiocyanate-labeled mouse anti-human MHC class I monoclonal antibody (an antibody produced from the cell line W6/32 (ATCC No. CRL 1991)). The mean fluorescence intensity of the stained cells (hereinafter referred to as MFI) was measured using flow cytometry FACScan (BD). The obtained value was defined as an expression level of MHC class I molecules. A test compound concentration necessary for suppressing 20% of the expression level of MHC class I molecules (EC20 value) was calculated using the following formula (1).
[formula] • Eexp: MFI of cultured cells containing test compound after being stained with antibody • Cexp: MFI of cultured cells containing no test compounds after being stained with antibody

Row | SMILES | EC20 (concentration necessary for suppressing 20% of the expression level of MHC class I molecules) [nM]
1 | COCCOc1ccc(-c2ccnc3nc(NC(=O)N[C@@H](C)CCCC(C)C)nn23)cc1 [Example 262, (S)-1-(1,5-dimethylhexyl)-3-{7-[4-(2-methoxyethoxy)phenyl]-[1,2,4]triazolo[1,5-a]pyrimidin-2-yl}urea] | 30
2 | COc1cccc([C@H](C)NC(=O)Nc2nc3nccc(-c4ccc(OCC5CCOCC5)cc4)n3n2)c1 [Example 322] | 20
3 | COc1cccc(-c2ccnc3nc(NC(=O)NCc4ccccc4)nn23)c1 [Example 019] | 1100
4 | COc1ccc(-c2ccnc3nc(NC(=O)NCc4ccccc4OC)nn23)cc1 [Example 214] | 420
5 | COc1ccc(-c2ccnc3nc(NC(=O)N[C@@H](C)C(=O)N4CCOCC4)nn23)cc1 [Example 118] | 610
6 | COc1ccc(-c2ccnc3nc(NC(=O)N[C@@H](C)C(=O)NCc4ccccn4)nn23)cc1 [Example 124] | 210
7 | CC(NC(=O)Nc1nc2nccc(-c3cccs3)n2n1)c1ccc2c(c1)OCO2 (stereo not drawn) [Example 295] | 790
8 | COc1ccc(-c2ccnc3nc(NC(=O)N[C@H](C(=O)N4CCOCC4)C(C)C)nn23)cc1 [Example 070] | 480
9 | COc1cccc([C@H](C)NC(=O)Nc2nc3nccc(-c4cccc(OCCCN5CCOCC5)c4)n3n2)c1 [Example 249] | 70
10 | C[C@H](NC(=O)Nc1nc2nccc(-c3cccs3)n2n1)C(=O)OC(C)(C)C [Example 050] | 330
11 | O=C(Nc1nc2nccc(-c3cccc(OCc4ccncc4)c3)n2n1)NC1CCCCC1 [Example 171] | 290
12 | COc1ccc(-c2ccnc3nc(NC(=O)NCc4cc(OC)c(OC)c(OC)c4)nn23)cc1 [Example 247] | 37
13 | COCCCNC(=O)[C@@H](NC(=O)Nc1nc2nccc(-c3ccc(OC)cc3)n2n1)C(C)C [Example 095] | 630
14 | COc1ccc(-c2ccnc3nc(NC(=O)NC(C)CCCC(=O)N4CCOCC4)nn23)cc1 (stereo not drawn) [Example 275] | 540
15 | CC(C)NC(=O)Nc1nc2nccc(-c3cccc(OCCCc4ccccc4)c3)n2n1 [Example 194] | 420
16 | CCC[C@H](NC(=O)Nc1nc2nccc(-c3ccc(OC)cc3)n2n1)C(=O)Nc1ccccc1 [Example 151] | 220
17 | COc1ccc(-c2ccnc3nc(NC(=O)N[C@H](C(=O)NCCN4CCOCC4)C(C)C)nn23)cc1 [Example 079] | 970
18 | COc1ccc([C@H](C)NC(=O)Nc2nc3nccc(-c4cccs4)n3n2)cc1 [Example 176] | 200
19 | COc1ccc(-c2ccnc3nc(NC(=O)NC(C)c4cccc(OS(C)(=O)=O)c4)nn23)cc1 (racemic) [Example 195] | 60
20 | C[C@H](NC(=O)Nc1nc2nccc(-c3ccc(O)cc3)n2n1)c1cccc(O)c1 [Example 266] | 200
21 | CCC(CC)NC(=O)Nc1nc2nccc(-c3ccc(OC)cc3)n2n1 [Example 128] | 540
22 | COCCOc1ccc(-c2ccnc3nc(NC(=O)N[C@@H](C)CCCC(C)C)nn23)cc1OCCOC [Example 252] | 50
23 | COc1cccc(-c2ccnc3nc(NC(=O)NC4CCCCC4)nn23)c1 [Example 017] | 220
24 | COc1ccc(-c2ccnc3nc(NC(=O)N[C@@H](C)C(C)C)nn23)cc1 [Example 216] | 160
25 | CNC(=O)Nc1nc2nccc(-c3ccc(OC)cc3)n2n1 [Example 026] | 900
26 | CC(=O)OC(C)(C)C(=O)N(C)CCC(C)NC(=O)Nc1nc2nccc(-c3cccs3)n2n1 (stereo not drawn) [Example 299] | 430
27 | COc1cccc([C@H](C)NC(=O)Nc2nc3nccc(-c4cccc(OCCc5ccccn5)c4)n3n2)c1 [Example 208] | 180

Row | SMILES | EC20 (concentration necessary for suppressing 20% of the expression level of MHC class I molecules) [nM]
28 | COc1ccc(-c2ccnc3nc(NC(=O)N[C@H](C(=O)O)C(C)C)nn23)cc1 [Example 054] | 630
29 | COCC/C=C/[C@H](C)NC(=O)Nc1nc2nccc(-c3cccs3)n2n1 [Example 290] | 340
30 | CC(C)NC(=O)Nc1nc2nccc(-c3cccc(O)c3)n2n1 [Example 084] | 420
31 | COc1ccc(-c2ccnc3nc(NC(=O)NC(C)CCN(C)C(=O)C(C)(C)OC(C)=O)nn23)cc1 (stereo not drawn) [Example 298] | 80
32 | CC(COCC1CCOCC1)NC(=O)Nc1nc2nccc(-c3ccc4c(c3)OCO4)n2n1 (stereo not drawn) [Example 335] | 260
33 | CC(C)NC(=O)Nc1nc2nccc(-c3ccc4c(c3)CCO4)n2n1 [Example 046] | 340
34 | COc1ccc(-c2ccnc3nc(NC(=O)N[C@@H](C)C(=O)NCC4CCCCC4)nn23)cc1 [Example 121] | 170
35 | COc1ccc(-c2ccnc3nc(NC(=O)NC(C)Cc4ccc(Cl)cc4)nn23)cc1 (racemic) [Example 142] | 60
36 | COc1ccc(-c2ccnc3nc(NC(=O)NC(C)CCC(=O)N4CCOCC4)nn23)cc1 (stereo not drawn) [Example 273] | 600
37 | COc1ccc(-c2ccnc3nc(NC(=O)NCCc4cccnc4)nn23)cc1 [Example 104] | 430
38 | COc1ccc(-c2ccnc3nc(NC(=O)N[C@@H](C)c4ccc([N+](=O)[O-])cc4)nn23)cc1 [Example 139] | 130
39 | CC[C@H](NC(=O)Nc1nc2nccc(-c3ccc(OC)cc3)n2n1)C(=O)N1CCOCC1 [Example 149] | 630
40 | COCCN(CCOC)C(=O)[C@@H](NC(=O)Nc1nc2nccc(-c3ccc(OC)cc3)n2n1)C(C)C [Example 097] | 470
41 | CC(C)CCC[C@H](C)NC(=O)Nc1nc2nccc(-c3cccc(OCc4cccnc4)c3)n2n1 [Example 261] | 80
42 | CC(C)COc1cccc(-c2ccnc3nc(NC(=O)NC4CCCCC4)nn23)c1 [Example 108] | 130
43 | COCCOCCOCCOc1ccc(-c2ccnc3nc(NC(=O)N[C@@H](C)c4cccc(OC)c4)nn23)cc1 [Example 238] | 15
44 | CCNC(=O)Nc1nc2nccc(-c3ccc(OC)cc3)n2n1 [Example 031] | 400
45 | COc1ccc(-c2ccnc3nc(NC(=O)NC4CCC(C(=O)N(C)C)CC4)nn23)cc1 (stereo not drawn) [Example 169] | 660
46 | COc1ccc(-c2ccnc3nc(NC(=O)N[C@@H](C)C(C)=O)nn23)cc1 [Example 220] | 720
47 | CC(C)NC(=O)Nc1nc2nccc(-c3cccc(OCCN4CCOCC4)c3)n2n1 [Example 189] | 590
48 | COc1ccc([C@H](C)NC(=O)Nc2nc3nccc(-c4cccc(OC)c4)n3n2)cc1 [Example 186] | 440
49 | COc1ccc(-c2ccnc3nc(NC(=O)NC(C)c4ccc5c(c4)OCO5)nn23)cc1 (stereo not drawn) [Example 297] | 110
50 | COc1cccc([C@H](C)NC(=O)Nc2nc3nccc(-c4ccc(N(C)C)cc4)n3n2)c1 [Example 232] | 40
51 | O=C(Nc1nc2nccc(-c3cccc(OCc4ccccc4)c3)n2n1)NC1CCCCC1 [Example 115] | 600
52 | COCC[C@H](C)NC(=O)Nc1nc2nccc(-c3cccs3)n2n1 [Example 332] | 760
53 | COc1ccc(-c2ccnc3nc(NC(=O)N[C@H](C(=O)NCCc4ccccn4)C(C)C)nn23)cc1 [Example 080] | 710
54 | COc1ccc(-c2ccnc3nc(NC(=O)N[C@@H](C)c4ccc(OC)cc4)nn23)cc1 [Example 133] | 190
